Data: patent publication US20260209189A1, “ISOXAZOLINE-SUBSTITUTED BENZAMIDE COMPOUND AND APPLICATION THEREOF” (priority 2022, published 2026)

What was measured:
Assay type in all cases: in vivo
Aphis craccivora = test: Insecticidal activity assay, peanut leaf dip, adult aphid; details: liquid concentration 8.1 ppm, 48 h
Description: (§1) The compound of the present invention was dissolved in acetone, and then diluted with water into liquids with gradients of different concentrations (ppm). Corn leaves were soaked in liquids of different concentrations for about 20 seconds, air-dried and then placed in petri dishes where 3rd instar Spodoptera frugiperda were placed, respectively; kale leaves were soaked in liquids of different concentrations for about 20 seconds, air-dried and then placed in petri dishes where 3rd instar Spodoptera frugiperda were placed, respectively; peanut leaves were soaked in liquids of different concentrations for about 20 seconds, air-dried and then placed in petri dishes where Tetranychus urticae (adult mite) and Aphis craccivora (adult aphid) were placed, respectively; water bamboo leaves were soaked in liquids of different concentrations for about 20 seconds, air-dried and then placed in petri dishes where 4th instar Chilo suppressalis were placed, respectively. Each petri dish was placed with 10 insects, covered and then stored at 25° C. in a constant temperature room. The number of dead insects were checked after 48 h. The dead insect rate was calculated by the formula: Death rate (%)=(Number of dead insects/Number of test insects)×100. Furthermore, the experiment was conducted in two replications.

Spodoptera exigua = test: Insecticidal activity assay, kale leaf dip, 3rd instar larvae; details: liquid concentration 0.3 ppm, 48 h
Tetranychus urticae = test: Insecticidal activity assay, peanut leaf dip, adult mite; details: 48 h
Description: as §1

Chilo suppressalis = test: Insecticidal activity assay, water bamboo leaf dip, 4th instar larvae; details: liquid concentration 0.4 ppm, 48 h
Description: as §1

Spodoptera frugiperda [1] = test: Insecticidal activity assay, corn leaf dip, 3rd instar larvae; details: liquid concentration 0.3 ppm, 48 h
Description: as §1

Spodoptera frugiperda [2] = test: Assay of insecticidal activity of compositions (synergism), 3rd instar; details: A 0.1 ppm
Description: as §1
• Test targets: Spodoptera frugiperda (3rd instar) and Aphis gossypii (adult aphid) […]
(§2) Different ratios within the selected ratio range were set for toxicity determination, and the optimal ratio was selected according to synergistic effects. When the synergistic effect >0, it indicated a synergistic effect; when the synergistic effect is close to 0, it indicated an addition effect; when the synergistic effect <0, it indicated an antagonistic effect.
(§3) [formula] • wherein, P1, P2—Death rate by each individual agent in a mixed formulation.

Aphis gossypii = test: Assay of insecticidal activity of compositions (synergism), zucchini leaves, adult aphid
Description: as §1
• Test targets: Spodoptera frugiperda (3rd instar) and Aphis gossypii (adult aphid)
Referring to the above-mentioned Insecticidal activity assay, when the test target was Aphis gossypii, the zucchini leaves were selected.
as §2, §3

| Compound | Death rate (Aphis craccivora) | Death rate (Spodoptera exigua) | Death rate (Tetranychus urticae; liquid concentration 8.1 ppm) | Death rate (Chilo suppressalis) | Death rate (Spodoptera frugiperda [1]) | Death rate (Tetranychus urticae; liquid concentration 0.9 ppm) | Death rate by individual A (Spodoptera frugiperda [2]) | Death rate by individual A (Aphis gossypii; A 0.1 ppm) | Death rate by individual B (Aphis gossypii; B 2 ppm) |
| --- | --- | --- | --- | --- | --- | --- | --- | --- | --- |
| COC(=O)C(C)NC(=O)c1ccc(C2=NOC(c3cc(Cl)cc(C(F)(F)F)c3)(C(F)(F)F)C2)cc1C (mixture of isomers) [1 (2R)] | 83% | 90% | 83% | 100% | 100% | – | – | – | – |
| COC(=O)C(C)NC(=O)c1ccc(C2=NOC(c3cc(Cl)c(F)c(C(F)(F)F)c3)(C(F)(F)F)C2)cc1C (mixture of isomers) [2 (2R)] | 90% | 90% | – | 100% | 100% | 100% | – | – | – |
| CCc1cc(C2=NOC(c3cc(Cl)c(Cl)c(C(F)(F)F)c3)(C(F)(F)F)C2)ccc1C(=O)NC(C)C(=O)OC (mixture of isomers) [140 (2R)] | 100% | 100% | 100% | 100% | 100% | – | – | – | – |
| COC(=O)C(C)NC(=O)c1ccc(C2=NOC(c3cc(Cl)c(Cl)c(C(F)(F)F)c3)(C(F)(F)F)C2)cc1C(F)(F)F (mixture of isomers) [147 (2R)] | 100% | 100% | 100% | 100% | 100% | – | – | – | – |
| COC(=O)CNC(=O)c1ccc(C2=NO[C@@](c3cc(Cl)c(Cl)c(C(F)(F)F)c3)(C(F)(F)F)C2)cc1C [188 (5S)] | 100% | 100% | 100% | 100% | 100% | – | – | – | – |
| COC(=O)C(C)NC(=O)c1ccc(C2=NOC(c3cc(Cl)c(F)c(C(F)(F)F)c3)(C(F)(F)F)C2)cc1C [Compound 2 (5S, 2R)] | 100% | 100% | – | 100% | 100% | 100% | – | – | – |
| COC(=O)[C@@H](C)NC(=O)c1ccc(C2=NOC(c3cc(Cl)c(Cl)c(C(F)(F)F)c3)(C(F)(F)F)C2)cc1C (stereo partly drawn) [Compound 3 (2R)] | 93% | 77% | – | 100% | 100% | 100% | 72% | 38% | – |
| CC(C)=NOC(=O)[C@@H](C)NC(=O)c1ccc(C2=NOC(c3cc(Cl)c(Cl)c(C(F)(F)F)c3)(C(F)(F)F)C2)cc1C (stereo partly drawn) [Compound 80 (2R)] | 100% | 100% | 100% | 100% | 100% | – | – | – | – |
| COC(=O)[C@@H](C)NC(=O)c1ccc(C2=NOC(c3cc(Cl)c(Cl)c(C(F)(F)F)c3)(C(F)(F)F)C2)cc1Cl (stereo partly drawn) [Compound 144 (2R)] | 100% | 100% | 100% | 100% | 100% | – | – | – | – |
| COC(=O)[C@@H](C)NC(=O)c1ncc(C2=NOC(c3cc(Cl)c(Cl)c(C(F)(F)F)c3)(C(F)(F)F)C2)cc1C (stereo partly drawn) [Compound 154 (2R)] | 93% | 77% | – | 100% | 100% | 100% | – | – | – |
| COC(=O)[C@@H](C)NC(=O)c1ccc(C2=NOC(c3cc(Cl)cc(Cl)c3)(C(F)(F)F)C2)cc1C (stereo partly shown) [Control compound A, reference compound] | 20% | 30% | 25% | 40% | 70% | – | – | – | – |
| CCN(C(=O)c1cnn(C(C)C(C)C)c1C)c1ccnnc1 (stereo not shown) [dimpropyridaz, Dimpropyridaz, reference compound] | – | – | – | – | – | – | – | – | 48% |
